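96-well plates; 48 h exposure; 5 concentrations. Endpoints by linear interpolation between flanking doses. Not reached: highest tested concentration assigned. Abbreviation: GI50, concentration required for 50% inhibition of growth.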 Active and inactive are the calls of the source. Rule as the data show it: active = GI50 up to about 1.1 µM and inactive = higher.
Columns and labels:
Experiment in all cases: NCI anticancer screen, dose series, 48 h
[1] = test system: BT-549
[2] = test system: CCRF-CEM
[3] = test system: HCT-116
[4] = test system: HT-29
[5] = test system: Hs-578T
[6] = test system: KM12
[7] = test system: MCF7
[8] = test system: MDA-MB-435
[9] = test system: NCI-H226
[10] = test system: NCI/ADR-RES
[11] = test system: OVCAR-3
[12] = test system: OVCAR-8
[13] = test system: SF-539
[14] = test system: SK-MEL-28
[15] = test system: SK-MEL-2
[16] = test system: SK-MEL-5
[17] = test system: SN12C
[18] = test system: SNB-19
[19] = test system: T47D
[20] = test system: UACC-257

O=[N+]([O-])c1ccc2nc3c(nc2c1)-c1c2ccccc2cc2cccc-3c12
GI50 [1]: 3.56 µM (inactive)
GI50 [2]: 6.12 µM (inactive)
GI50 [3]: 2.87 µM (inactive)
GI50 [4]: 5.31 µM (inactive)
GI50 [5]: 5.37 µM (inactive)
GI50 [6]: 3.61 µM (inactive)
GI50 [7]: 4.06 µM (inactive)
GI50 [8]: 27.8 µM (inactive)
GI50 [9]: 12.7 µM (inactive)
GI50 [10]: 3.97 µM (inactive)
GI50 [11]: 12.3 µM (inactive)
GI50 [12]: 7.55 µM (inactive)
GI50 [13]: 15 µM (inactive)
GI50 [14]: 51.4 µM (inactive)
GI50 [15]: 27.2 µM (inactive)
GI50 [16]: 31.8 µM (inactive)
GI50 [17]: 10.7 µM (inactive)
GI50 [18]: 11.7 µM (inactive)
GI50 [19]: 0.142 µM (active)
GI50 [20]: 18.8 µM (inactive)

O=c1[nH]nc(-c2ccccc2)n1/N=C/c1ccc([N+](=O)[O-])cc1
GI50 [1]: > 100 µM (inactive)
GI50 [2]: > 100 µM (inactive)
GI50 [3]: 25 µM (inactive)
GI50 [4]: > 100 µM (inactive)
GI50 [5]: 17 µM (inactive)
GI50 [6]: > 100 µM (inactive)
GI50 [7]: > 60.1 µM (inactive)
GI50 [8]: > 100 µM (inactive)
GI50 [9]: 27.6 µM (inactive)
GI50 [10]: 20.1 µM (inactive)
GI50 [11]: 19.7 µM (inactive)
GI50 [12]: 10.2 µM (inactive)
GI50 [13]: 17.1 µM (inactive)
GI50 [14]: > 100 µM (inactive)
GI50 [15]: 19.1 µM (inactive)
GI50 [16]: > 100 µM (inactive)
GI50 [17]: > 62.1 µM (inactive)
GI50 [18]: 7.78 µM (inactive)
GI50 [19]: 13.8 µM (inactive)
GI50 [20]: > 100 µM (inactive)

C/C(=N/NC(=S)Nc1ccc(C)cc1)c1ccccn1
GI50 [1]: 4.38 µM (inactive)
GI50 [2]: < 0.0124 µM (active)
GI50 [3]: < 0.0146 µM (active)
GI50 [4]: < 0.0366 µM (active)
GI50 [5]: 0.859 µM (active)
GI50 [6]: 0.122 µM (active)
GI50 [7]: 0.0146 µM (active)
GI50 [8]: 1.07 µM (active)
GI50 [9]: 0.0908 µM (active)
GI50 [10]: < 0.0152 µM (active)
GI50 [11]: 0.0179 µM (active)
GI50 [12]: 0.0258 µM (active)
GI50 [13]: 0.815 µM (active)
GI50 [14]: 2.1 µM (inactive)
GI50 [15]: 1.41 µM (inactive)
GI50 [16]: 0.12 µM (active)
GI50 [17]: 0.192 µM (active)
GI50 [18]: 2.29 µM (inactive)
GI50 [19]: 0.049 µM (active)
GI50 [20]: < 0.0163 µM (active)

O=C(O)CNCc1c2ccccc2nc2ccccc12
GI50 [1]: 33.4 µM (inactive)
GI50 [2]: 7.24 µM (inactive)
GI50 [3]: 12.1 µM (inactive)
GI50 [4]: 27.3 µM (inactive)
GI50 [5]: 20.4 µM (inactive)
GI50 [6]: 32.3 µM (inactive)
GI50 [7]: 27.7 µM (inactive)
GI50 [8]: 36.6 µM (inactive)
GI50 [9]: 52.1 µM (inactive)
GI50 [10]: 26.5 µM (inactive)
GI50 [11]: 38.6 µM (inactive)
GI50 [12]: 32.9 µM (inactive)
GI50 [13]: 29.9 µM (inactive)
GI50 [14]: 59.6 µM (inactive)
GI50 [15]: 50.8 µM (inactive)
GI50 [16]: 25.7 µM (inactive)
GI50 [17]: 44.4 µM (inactive)
GI50 [18]: 74 µM (inactive)
GI50 [19]: 31.7 µM (inactive)
GI50 [20]: 34.1 µM (inactive)

O=C(NCCNCCCNC(=O)c1cc(-c2ccccc2)nc2ccccc12)c1cccc(O)c1O
GI50 [1]: 2.56 µM (inactive)
GI50 [2]: 0.697 µM (active)
GI50 [3]: 1.47 µM (inactive)
GI50 [4]: 4.88 µM (inactive)
GI50 [5]: 13.8 µM (inactive)
GI50 [6]: 4.44 µM (inactive)
GI50 [7]: 3.3 µM (inactive)
GI50 [8]: 2.51 µM (inactive)
GI50 [9]: 18.5 µM (inactive)
GI50 [10]: 22.4 µM (inactive)
GI50 [11]: 2.38 µM (inactive)
GI50 [12]: 2.38 µM (inactive)
GI50 [13]: 2.48 µM (inactive)
GI50 [14]: 1.72 µM (inactive)
GI50 [15]: 2.8 µM (inactive)
GI50 [16]: 1.36 µM (inactive)
GI50 [17]: 1.95 µM (inactive)
GI50 [18]: 2.1 µM (inactive)
GI50 [19]: 3.3 µM (inactive)
GI50 [20]: 4.01 µM (inactive)

O=P1(c2ccccc2)C(c2ccccc2)=CC=C1c1ccccc1
GI50 [1]: 18.8 µM (inactive)
GI50 [2]: 12.3 µM (inactive)
GI50 [3]: 9.25 µM (inactive)
GI50 [4]: 10.3 µM (inactive)
GI50 [5]: 37.8 µM (inactive)
GI50 [6]: 16.7 µM (inactive)
GI50 [7]: 10.4 µM (inactive)
GI50 [8]: 12.4 µM (inactive)
GI50 [9]: 26.4 µM (inactive)
GI50 [10]: 30.7 µM (inactive)
GI50 [11]: 12.2 µM (inactive)
GI50 [12]: 14.6 µM (inactive)
GI50 [13]: 59 µM (inactive)
GI50 [14]: 58.1 µM (inactive)
GI50 [15]: 11.3 µM (inactive)
GI50 [16]: 6.24 µM (inactive)
GI50 [17]: 39.2 µM (inactive)
GI50 [18]: > 100 µM (inactive)
GI50 [19]: 8.95 µM (inactive)
GI50 [20]: 22.5 µM (inactive)

CC(C)NC(=O)OCc1c(COC(=O)NC(C)C)c(-c2cc[n+](COC(=O)C(C)C)cc2)n2c1CCC2
GI50 [1]: > 100 µM (inactive)
GI50 [2]: 39.9 µM (inactive)
GI50 [3]: > 100 µM (inactive)
GI50 [4]: > 100 µM (inactive)
GI50 [5]: > 100 µM (inactive)
GI50 [6]: > 100 µM (inactive)
GI50 [7]: 64.4 µM (inactive)
GI50 [8]: > 100 µM (inactive)
GI50 [9]: > 100 µM (inactive)
GI50 [10]: > 100 µM (inactive)
GI50 [11]: > 100 µM (inactive)
GI50 [12]: > 100 µM (inactive)
GI50 [13]: 17.7 µM (inactive)
GI50 [14]: > 100 µM (inactive)
GI50 [15]: > 100 µM (inactive)
GI50 [16]: > 100 µM (inactive)
GI50 [17]: 62.1 µM (inactive)
GI50 [18]: > 100 µM (inactive)
GI50 [19]: > 94.8 µM (inactive)
GI50 [20]: > 100 µM (inactive)

Reference: ChEMBL document CHEMBL1201862, “PubChem BioAssay data set” (2004)
